From paper PMC10272180, “Ancient medicinal plant rosemary contains a highly efficacious and isoform-selective KCNQ potassium channel opener” (Communications Biology, 2023)

How the values were obtained:
[1] = test system: voltage-gated calcium channel, Cav3.2; design: method as in PMID 29073181; conditions: cited from earlier work
KCNQ3* (KCNQ3-A315T) = KCNQ3* (KCNQ3-A315T) (Homo sapiens, UniProt O43525, A315T); assay: TEVC of KCNQ3* homomers expressed in Xenopus laevis oocytes; assay type: cell-based
KCNQ2/3 = target: T1, KCNQ2/3 (Homo sapiens, UniProt O43525+O43526); assay: TEVC of KCNQ2/3 heteromers expressed in Xenopus laevis oocytes; assay type: cell-based
T1 construct: expressed in transfected cells; host or cells: Xenopus laevis oocytes co-injected with cRNAs
From the text: (§1) We generated cRNA transcripts encoding human KCNQ1, 2, 3, and 5 (wild-type and mutant) by in vitro transcription using the mMessage mMachine kit (Thermo Fisher Scientific, Waltham, MA, USA) according to manufacturer’s instructions, after vector linearization, from cDNA sub-cloned into expression vectors (pTLNx and pXOOM) incorporating Xenopus laevis β-globin 5’ and 3’ UTRs flanking the coding region to enhance translation and cRNA stability. Mutant KCNQ cDNAs were generated by Genscript (Piscataway, NJ, USA) and cRNAs made as above. We injected defolliculated stage V and VI Xenopus laevis oocytes (Xenoocyte, Dexter, MI, USA) with KCNQ cRNAs (2–10 ng) and incubated the oocytes at 16 °C in ND96 oocyte storage solution containing penicillin and streptomycin, with daily washing, for 2–4 days prior to two-electrode voltage-clamp (TEVC) recording.
We placed oocytes in a small-volume oocyte bath (Warner) and viewed them with a dissection microscope for cellular electrophysiology. We sourced chemicals from Sigma-Aldrich (St. Louis, MO, USA) and Combi-Blocks (San Diego, CA, USA). We studied effects of Salvia rosmarinus extracts and of compounds, solubilized directly in bath solution (in mM): 96 NaCl, 4 KCl, 1 MgCl2, 1 CaCl2, 10 HEPES (pH 7.6). We introduced extracts or compounds into the oocyte recording bath by gravity perfusion at a constant flow of 1 ml per minute for 3 min prior to recording. Pipettes were of 1-2 MΩ resistance when filled with 3 M KCl. […] We analyzed data using Clampfit (Molecular Devices) and Graphpad Prism software (GraphPad, San Diego, CA, USA), stating values as mean ± SEM. We plotted raw or normalized tail currents versus prepulse voltage and fitted with a single Boltzmann function:1 g=(A1−A2)/1+exp[V1/2−V/Vs]y+A2 where g is the normalized tail conductance, A1 is the initial value at -∞, A2 is the final value at +∞, V1/2 is the half-maximal voltage of activation and Vs the slope factor. We fitted activation and deactivation kinetics with single exponential functions.

[2] = Solubility limit for testing in bath solution; assay type: physicochemical; conditions: for solubility (highest testable concentration): pH 7.6
From the text: (§2) We performed TEVC at room temperature using an OC-725C amplifier (Warner Instruments, Hamden, CT, USA) and pClamp10 software (Molecular Devices, Sunnyvale, CA, USA) 2–4 days after cRNA injection. We placed oocytes in a small-volume oocyte bath (Warner) and viewed them with a dissection microscope for cellular electrophysiology. We sourced chemicals from Sigma-Aldrich (St. Louis, MO, USA) and Combi-Blocks (San Diego, CA, USA). We studied effects of Salvia rosmarinus extracts and of compounds, solubilized directly in bath solution (in mM): 96 NaCl, 4 KCl, 1 MgCl2, 1 CaCl2, 10 HEPES (pH 7.6). We introduced extracts or compounds into the oocyte recording bath by gravity perfusion at a constant flow of 1 ml per minute for 3 min prior to recording. Pipettes were of 1-2 MΩ resistance when filled with 3 M KCl. We recorded currents in response to voltage pulses between −120 mV and +40 mV at 10 mV intervals from a holding potential of −80 mV, to yield current-voltage relationships and examine activation kinetics. We analyzed data using Clampfit (Molecular Devices) and Graphpad Prism software (GraphPad, San Diego, CA, USA), stating values as mean ± SEM. We plotted raw or normalized tail currents versus prepulse voltage and fitted with a single Boltzmann function:1 g=(A1−A2)/1+exp[V1/2−V/Vs]y+A2 where g is the normalized tail conductance, A1 is the initial value at -∞, A2 is the final value at +∞, V1/2 is the half-maximal voltage of activation and Vs the slope factor. We fitted activation and deactivation kinetics with single exponential functions.

KCNQ2/3 channels = test system: KCNQ2/3 channels; design: method as in PMID 35459955; conditions: cited from earlier work
KCNQ2 = KCNQ2 (Homo sapiens, UniProt O43526); assay: TEVC of KCNQ2 homomers expressed in Xenopus laevis oocytes; assay type: cell-based
From the text: as §1
as §2, with “We recorded currents in response to voltage pulses between −120 mV and +40 mV at 10 mV intervals from a holding potential of −80 mV, to yield current-voltage relationships and examine activation kinetics.” left out

KCNQ3* (KCNQ3-A315T), sequence (O43525 whole entry A315T): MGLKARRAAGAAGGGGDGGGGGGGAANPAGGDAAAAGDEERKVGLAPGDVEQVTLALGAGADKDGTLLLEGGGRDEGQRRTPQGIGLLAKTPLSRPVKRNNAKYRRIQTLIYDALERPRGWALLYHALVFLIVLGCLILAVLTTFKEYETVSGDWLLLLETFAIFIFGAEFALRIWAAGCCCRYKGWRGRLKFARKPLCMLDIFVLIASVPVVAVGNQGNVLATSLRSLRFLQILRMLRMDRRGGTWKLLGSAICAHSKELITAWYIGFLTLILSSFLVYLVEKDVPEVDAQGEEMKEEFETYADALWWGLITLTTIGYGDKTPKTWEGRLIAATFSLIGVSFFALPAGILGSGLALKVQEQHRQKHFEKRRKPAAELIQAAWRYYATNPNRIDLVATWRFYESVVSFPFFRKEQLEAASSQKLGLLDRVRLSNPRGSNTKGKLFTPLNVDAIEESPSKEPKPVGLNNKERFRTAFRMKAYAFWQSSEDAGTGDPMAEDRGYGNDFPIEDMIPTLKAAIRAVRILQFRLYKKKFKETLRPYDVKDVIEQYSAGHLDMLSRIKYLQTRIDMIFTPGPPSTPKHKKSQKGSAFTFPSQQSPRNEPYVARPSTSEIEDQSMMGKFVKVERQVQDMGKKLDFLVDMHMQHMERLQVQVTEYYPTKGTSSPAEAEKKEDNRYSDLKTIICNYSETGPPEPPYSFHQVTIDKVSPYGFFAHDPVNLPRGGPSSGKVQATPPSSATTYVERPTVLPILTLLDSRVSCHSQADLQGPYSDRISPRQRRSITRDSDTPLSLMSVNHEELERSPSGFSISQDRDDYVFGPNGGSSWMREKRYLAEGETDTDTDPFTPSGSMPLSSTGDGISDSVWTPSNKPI

## O=C(/C=C/c1ccc(O)c(O)c1)O[C@H](Cc1ccc(O)c(O)c1)C(=O)O [Rosmarinic acid]
[1]
  IC50: 49.9 µM
KCNQ3* (KCNQ3-A315T); 100 µM
  Slope: 4.36 ± 0.60 mV
  V0.5 Normalized tail current: -49.64 ± 0.84 mV
  V0.5 non-normalized tail current: -50.09 ± 3.47 mV

## COC(=O)[C@]12CCCC(C)(C)[C@@H]1CCc1cc(C(C)C)c(O)c(O)c12 [Methyl carnosate, methyl carnosate]
KCNQ2/3; 10 µM
  Slope: 10.46 ± 0.87 mV
  V0.5 Normalized tail current: -34.00 ± 0.97 mV
  shift in V0.5act / opening: did not open
[2]
  solubility (highest testable concentration): poor solubility
KCNQ3* (KCNQ3-A315T); 10 µM
  Slope: 4.63 ± 0.74 mV
  V0.5 Normalized tail current: -47.09 ± 0.74 mV
  shift in V0.5act / opening: only a weak activator

## Oc1cc(Cl)ccc1Oc1ccc(Cl)cc1Cl [triclosan]
KCNQ2/3 channels
  EC50: 32 µM

## CC(C)c1cc2c(cc1O)C1(C(=O)O)CCCC(C)(C)C1CC2 (stereo not shown) [Pisiferic acid, pisiferic acid]
KCNQ2/3; 100 µM
  Slope: 7.44 ± 0.55 mV
  V0.5 Normalized tail current: -42.05 ± 0.63 mV
KCNQ3* (KCNQ3-A315T); 100 µM
  Slope: 4.89 ± 0.45 mV
  V0.5 Normalized tail current: -51.70 ± 0.51 mV
  shift in V0.5act: only weakly negative-shifted

## COc1ccc([C@@H]2CC(=O)c3c(O)cc(O[C@@H]4O[C@H](CO[C@@H]5O[C@@H](C)[C@H](O)[C@@H](O)[C@H]5O)[C@@H](O)[C@H](O)[C@H]4O)cc3O2)cc1O [Hesperidin, hesperidin]
KCNQ2/3; 30 µM
  Slope: 7.73 ± 0.60 mV
  V0.5 Normalized tail current: -48.08 ± 0.71 mV
  V0.5act shift: −10.4 mV
  V0.5 non-normalized tail current: -48.30 ± 2.77 mV
  effect on EM of unclamped oocytes: hyperpolarized
KCNQ2; 30 µM
  channel opening: did not open
KCNQ2; 100 µM
  Slope: 6.54 ± 0.41 mV
  V0.5 Normalized tail current: -45.73 ± 0.48 mV
[2]; oocyte recording bath solution, pH 7.6, aqueous buffer, read-out: solubility (highest testable concentration)
  solubility: ≤ 30 µM
KCNQ3* (KCNQ3-A315T); 30 µM
  Slope: 4.65 ± 0.46 mV
  V0.5 Normalized tail current: -55.97 ± 0.57 mV
  V0.5 non-normalized tail current: -55.83 ± 1.97 mV
  shift in V0.5act: ~ −10 mV
KCNQ3* (KCNQ3-A315T); 100 µM (hesperidin 30 µM)
  effect on EM of unclamped oocytes: hyperpolarized

## COC[C@H]1OC(=O)c2coc3c2[C@@]1(C)C1=C(C3=O)[C@@H]2CCC(=O)[C@@]2(C)C[C@H]1OC(C)=O [wortmannin, reference compound]
KCNQ3* (KCNQ3-A315T); wortmannin pretreatment to reduce PIP2
  reduction of KCNQ3* current magnitude: ~ fivefold

## C[C@H]1[C@H](C)CC[C@]2(C(=O)O)CC[C@]3(C)C(=CC[C@@H]4[C@@]5(C)CC[C@H](O)C(C)(C)[C@@H]5CC[C@]43C)[C@H]12 [Ursolic acid]
KCNQ3* (KCNQ3-A315T); 100 µM
  Slope: 4.49 ± 0.53 mV

## CC(=O)Oc1c(C(C)C)cc2c(c1OC(C)=O)C1(C(=O)O)CCCC(C)(C)C1CC2 (stereo not shown) [Carnosic acid diacetate]
KCNQ2/3; 10 µM
  Slope: 6.11 ± 0.49 mV
  V0.5 Normalized tail current: -38.43 ± 0.56 mV
  shift in V0.5act / opening: only weakly negative-shifted
[2]
  solubility (highest testable concentration): solubility issues
KCNQ3* (KCNQ3-A315T); 10 µM
  Slope: 5.06 ± 0.63 mV
  V0.5 Normalized tail current: -50.38 ± 0.69 mV
  shift in V0.5act / opening: only weakly negative-shifted
